Patent US20130030007A1, “Obesity Small Molecules” (AKRON MOLECULES GMBH, priority 2010, published 2013)
Read-outs that look alike come from different tables or passages of the source.

Tests used:
C57BL6/J DIO mice [1] = test: Body weight of diet-induced obese mice under daily compound administration; type: in vivo, mouse
Experimental: FIG. 9. Loss of weight in Vandetanib administered mice. C57BL6/J DIO mice were administered 40/mg/kg/day by oral gavage. The mice were weighed daily and the values were expressed as a percentage of the starting weight (day 1). […] Error bars represent standard error of the mean.
FIG. 13. Loss of weight in dasatininb administered mice. C57BL6/J DIO mice were administered 5/mg/kg/day for 27 days. The mice were weighed daily and the values were expressed as a percentage of the starting weight (day 1). […] Error bars represent standard error of the mean.
General preferred layout: The mice were divided into cages of 2-4 mice per cage and allowed to acclimatise to the new housing conditions for at least 2 weeks. The mice were weighed every week to monitor their weight and ensure that the mice are either gaining weight or stabilized prior to initiation of the experiment. Mice were randomly assigned to weight-matched groups for compound administration. Compound dosage and routes of administration were determined based on published literature and pharmacokinetic studies. […]
The dose of Vandetanib chosen for this study was 40 mg/kg/d. This has been determined to be an effective dose for the inhibition of the target VEGFR in various mouse cancer models. […] The mice were weighed on a daily basis during the experiment and monitored for overt signs of toxicity or stress. […]

C57BL6/J DIO mice [2] = system: C57BL6/J DIO mice
hedgehog pathway = type: cell-based
[3] = human, in vivo, po; cited from earlier work
[4] = administered orally; cited from earlier work
[5] = cited from earlier work
tumour growth = conditions: up to 100 mg/kg in mice for 35 days; cited from earlier work
[6] = system: human Adenoid Cycstic Carcinoma; conditions: 50 mg/kg/d oral gavage for 4 weeks; cited from earlier work
renal cell carcinoma = conditions: 50 mg/kg for 21 days; cited from earlier work

Cc1nc(Nc2ncc(C(=O)Nc3c(C)cccc3Cl)s2)cc(N2CCN(CCO)CC2)n1 [Dasatinib]
average loss of starting weight (C57BL6/J DIO mice [1]; 5 mg/kg/day intraperitoneally, by day 28): 20% | tolerability / adverse side effects (C57BL6/J DIO mice [2]; mouse, in vivo, ip, 5 mg/kg/day): well tolerated during the course of the study and no adverse side effects were observed

CNC1CCC(N(Cc2cccc(-c3ccncc3)c2)C(=O)c2sc3ccccc3c2Cl)CC1 (stereo not drawn) [SAG]
hedgehog pathway activation (target genes Gli1 and Ptch1) (hedgehog pathway): activation

CNC(=O)c1cc(Oc2ccc(NC(=O)Nc3ccc(Cl)c(C(F)(F)F)c3)cc2)ccn1 [Sorafenib]
maximum tolerated dose in humans [3]: 400 mg | half life [4]: 25 to 48 h

C=CCNC1=C2C[C@@H](C)C[C@H](OC)[C@H](O)[C@@H](C)/C=C(\C)[C@H](OC(N)=O)[C@@H](OC)/C=C\C=C(/C)C(=O)NC(=CC1=O)C2=O [Tanespimycin, 17-allylamino-demethoxygeldamycin]
water solubility [5]: water insoluble

COc1cc2c(Nc3ccc(Br)cc3F)ncnc2cc1OCC1CCN(C)CC1 [Vandetanib]
effect on clinical condition (tumour growth): no obvious effect on clinical condition | reduction of body weight (C57BL6/J DIO mice [1]; 40 mg/kg/d oral gavage, stabilized over the course of the experiment): ~10% | maximum tolerated dose in humans [3]: 300 mg | tolerability [6]: well tolerated by the mice and no adverse side effects or loss in body weight was observed | tolerability (renal cell carcinoma): well tolerated with no drug related changes in weight or behaviour observed | tolerability / adverse side effects (C57BL6/J DIO mice [2]; DIO mice, 40 mg/kg/d oral gavage, course of the study): well tolerated during the course of the study and no adverse side effects were observed
